Measurements as given in US20060216258A1, “Water-in-silicone emulsion compositions” (priority 2005, published 2006).

Assay: human repetitive patch test (cumulative irritation)
Settings: undiluted product under semi-occlusive patches daily over twelve-day test period, about 100 μl per patch; SLS value is average of two studies
Procedure: The technique involves application of undiluted test products under semi-occlusive patches daily over a twelve-day test period. Approximately 100 μl of test product is applied to each non-woven cotton pad and secured to the skin with porous, hypoallergenic tape. An undosed patch served as a negative control, while a 1.0% sodium lauryl sulfate (SLS) patch served as the positive control. Each day, patches were removed and test sites professionally graded for irritation prior to re-patching.

Compound: CCCCCCCCCCCCOS(=O)(=O)[O-].[Na+] [SLS, sodium lauryl sulfate]
- Cumulative Irritation Score: 514
